Measurements taken from patent publication US20120202801A1, “METHODS FOR TREATING BREAST CANCER” (priority 2009, published 2012).
Like-named read-outs stand apart in the source and are kept apart here.

Tests used:
[1] = Dose response assessment in nude mice bearing HT1080 xenografts (tumor and plasma human VEGF, tumor size, trough plasma concentration); type: in vivo; details: male, athymic nude, mouse, plasma, oral; 1 mg/kg BID, 16 hours after the first day of dosing (n=3)
Protocol: Experimental Study Design. HT1080 cells (5×10^6 cells/mouse) were implanted subcutaneously in male athymic nude mice.
Tumor size was measured using calipers at periodic intervals during the study (data shown in Section 9.2.2). […] Mice were sacrificed, and excised tumors were homogenized in buffer containing protease inhibitors. Both terminal intratumoral and pathologic plasma human VEGF levels were measured using an ELISA that recognizes human VEGF121 and VEGF165 (as described in Section 9.1.1.1). Intratumoral VEGF levels were normalized to the total tumor protein concentration, while pathologic plasma human VEGF levels were expressed in pg/mL of plasma.
Experimental Design. The experimental design was reported in Section 9.1.2.2.

[2] = tested on: soluble VEGF121 and VEGF165 isoforms; test: ELISA of soluble VEGF production in multiple human tumor cell lines (EC50); type: cell-based
Protocol: Study Design. […] In these experiments, cultures were established under normoxic conditions (21% oxygen). […] Cells requiring induction of VEGF production were incubated under hypoxic conditions (1% oxygen). At the completion of treatment, the conditioned media were collected and assayed by ELISA (as described in Section 9.1.1.1) for soluble VEGF121 and VEGF165 isoforms; results were calculated as percentage inhibition relative to vehicle treated controls. EC50 values were calculated from the dose concentration response curves.

[3] = Single-dose oral toxicity study in rats; details: Sprague Dawley, rat, in vivo
Protocol: The L23 vehicle was used.
Because maximal exposure occurred at 100 mg/kg, this dose is considered the NOAEL for 1 day of dosing.

[4] = rat, in vivo
[5] = In vitro plasma protein binding of 14C-Compound #10; type: in vitro ADME, mice, rats, dogs, monkeys, and humans; details: mouse, rat, dog, monkey, human, all species, read-out: plasma protein binding, overall mean

- concentration at 16 h [1]: 280 nM
- EC50 ([2]; A-375, Melanoma, A375, hypoxic (1% oxygen), 48 hours, read-out: VEGF Inhibition Approximate EC50): ~0.05 µM
- EC50 ([2]; A-431, Epidermoid, A431, 48 hours, read-out: VEGF Inhibition Approximate EC50): ~0.01 µM
- EC50 ([2]; ASPC1, ASPC-1 (Pancreas), 48 hours, read-out: VEGF Inhibition EC50): > 30 µM
- EC50 ([2]; Breast, MDA-MB-468, hypoxic (1% oxygen), 48 hours, read-out: VEGF Inhibition Approximate EC50): ~0.005 µM
- EC50 ([2]; Cervical, HeLa, hypoxic (1% oxygen), 48 hours, read-out: VEGF Inhibition Approximate EC50): ~0.002 µM
- EC50 ([2]; Colorectal, HCT-116, 48 hours, read-out: VEGF Inhibition Approximate EC50): ~0.01 µM
- EC50 ([2]; Gastric, AGS, 48 hours, read-out: VEGF Inhibition Approximate EC50): ~0.0001 µM
- EC50 ([2]; Gastric, Kato III, hypoxic (1% oxygen), 48 hours, read-out: VEGF Inhibition Approximate EC50): ~0.01 µM
- EC50 ([2]; HCT-116, HCT116 (Colorectal), 48 hours, read-out: VEGF Inhibition EC50): 0.01 µM
- EC50 ([2]; HEK293 (Renal cell), 48 hours, read-out: VEGF Inhibition EC50): 0.01 µM
- EC50 ([2]; HPAF-2 (Pancreas), 48 hours, read-out: VEGF Inhibition EC50): > 30 µM
- EC50 ([2]; HT-1080, Fibrosarcoma, HT1080, 48 hours, read-out: VEGF Inhibition Approximate EC50): ~0.01 µM
- EC50 ([2]; HT-1080, HT1080 (Fibrosarcoma), 48 hours, read-out: VEGF Inhibition EC50): 0.01 µM
- EC50 ([2]; HeLa (Cervical), 48 hours, read-out: VEGF Inhibition EC50): 0.002 µM
- EC50 ([2]; Lung, A549, 48 hours, read-out: VEGF Inhibition Approximate EC50): ~0.05 µM
- EC50 ([2]; Lung, Calu-6, hypoxic (1% oxygen), 48 hours, read-out: VEGF Inhibition Approximate EC50): ~0.007 µM
- EC50 ([2]; MDA-MB-231, 48 h, read-out: VEGF Inhibition Approximate EC50): ~0.005 µM
- EC50 ([2]; Neuroblastoma, SY5Y, hypoxic (1% oxygen), 48 hours, read-out: VEGF Inhibition Approximate EC50): ~0.005 µM
- EC50 ([2]; PL45, PL-45 (Pancreas), 48 hours, read-out: VEGF Inhibition EC50): > 30 µM
- EC50 ([2]; Pancreas, Capan-1, hypoxic (1% oxygen), 48 hours, read-out: VEGF Inhibition Approximate EC50): ~0.005 µM
- EC50 ([2]; Prostate, LNCaP, hypoxic (1% oxygen), 48 hours, read-out: VEGF Inhibition Approximate EC50): ~0.015 µM
- EC50 ([2]; Renal cell, HEK293, 48 hours, read-out: VEGF Inhibition Approximate EC50): ~0.01 µM
- EC50 ([2]; SK-OV-3, Ovarian, SKOV3, hypoxic (1% oxygen), 48 hours, read-out: VEGF Inhibition Approximate EC50): ~0.01 µM
- EC50 ([2]; SNU1, Gastric, SNU-1, 48 hours, read-out: VEGF Inhibition Approximate EC50): ~0.0001 µM
- EC50 ([2]; U-87MG (Glioblastoma), 48 hours, read-out: VEGF Inhibition EC50): > 30 µM
- dose of maximal exposures ([4]; both, Sprague Dawley, 7 days): 120 mg/kg/day
- elevation in mean cholesterol levels [4]: 2.5-3 fold
- elevation in mean glucose levels [4]: about 1.3 fold
- fraction unbound [5]: ≤ 0.005
Structure (SMILES): COc1ccc([C@H]2c3[nH]c4ccc(Cl)cc4c3CCN2C(=O)Oc2ccc(Cl)cc2)cc1 (racemic) [Compound #10]
- EC50 ([2]; Lung, NCI H460, 48 hours, read-out: VEGF Inhibition Approximate EC50): ~0.01 µM
- EC50 ([2]; NCI H460 (Lung), 48 hours, read-out: VEGF Inhibition EC50): 0.01 µM
- dose of maximal exposure [3]: 100 mg/kg
